Data reported in US20230321008A1, “INHIBITORS OF ACID SPHINGOMYELINASE FOR PREVENTING AND TREATING THE COVID-19 DISEASE” (priority 2020, published 2023).
Entries after “also recorded” stand apart in the source; their conditions may differ.

What was measured:
[1] = test system: ceramide-enriched membrane domains; conditions: in vitro; cited from earlier work
[2] = molecular target: T1, acid sphingomyelinase (ASM) (Homo sapiens, UniProt P17405); conditions: cited from earlier work
T1 sequence (P17405 47-631): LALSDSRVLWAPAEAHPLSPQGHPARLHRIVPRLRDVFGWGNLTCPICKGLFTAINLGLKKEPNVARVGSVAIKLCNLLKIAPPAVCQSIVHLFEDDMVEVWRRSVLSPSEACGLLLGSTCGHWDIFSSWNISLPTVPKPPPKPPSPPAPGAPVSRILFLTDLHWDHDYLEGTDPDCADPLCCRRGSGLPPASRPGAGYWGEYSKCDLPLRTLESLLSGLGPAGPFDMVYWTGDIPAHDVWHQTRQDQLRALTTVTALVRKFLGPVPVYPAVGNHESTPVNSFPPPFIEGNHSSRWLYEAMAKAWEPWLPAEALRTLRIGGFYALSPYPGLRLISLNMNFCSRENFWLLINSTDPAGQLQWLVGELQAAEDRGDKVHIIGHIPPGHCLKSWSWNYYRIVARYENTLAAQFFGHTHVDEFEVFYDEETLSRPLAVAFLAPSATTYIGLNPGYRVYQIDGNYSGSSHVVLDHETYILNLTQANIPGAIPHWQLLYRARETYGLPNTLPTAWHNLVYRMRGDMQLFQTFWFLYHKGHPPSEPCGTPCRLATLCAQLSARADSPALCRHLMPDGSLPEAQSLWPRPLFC

[3] = test system: SARS-CoV-2; conditions: cited from earlier work
[4] = test system: SARS-CoV-2; conditions: oral use in healthy volunteers; cited from earlier work
[5] = test system: SARS-CoV-2; conditions: in vitro; cited from earlier work
[6] = test system: severe COVID-19; assay: Example 1: multicenter observational retrospective cohort study, FIASMA psychotropic medication use at baseline and intubation or death in patients with mental disorder; assay type: in vivo, human; conditions: patients with mental disorder hospitalized for severe COVID-19; vs not exposed
Excerpt: We conducted a multicenter observational retrospective cohort study at 36 AP-HP hospitals from the beginning of the epidemic in France, i.e. January 24th, until May 1st. We included all adults aged 18 years or over with a mental disorder who have been hospitalized in these medical centers for severe COVID-19. Mental disorder was defined as having at least one current International Statistical Classification of Diseases and Related Health Problems (ICD-10) diagnosis of mental disorder (F01-F99) during the visit or an ongoing prescription of any antidepressant, antipsychotic, or mood stabilizer (i.e. lithium or antiepileptic medications with mood stabilizing effects) for a psychiatric disorder at hospital admission. COVID-19 was ascertained by a positive reverse-transcriptase-polymerase-chain-reaction (RT-PCR) test from analysis of nasopharyngeal or oropharyngeal swab specimens. […]
We calculated frequencies of baseline characteristics described above in patients receiving or not receiving a FIASMA psychotropic medication and compared them using standardized mean differences (SMD). […]

[7] = test system: severe COVID-19; assay: Example 2: multicenter observational retrospective cohort study, FIASMA medication use at baseline and intubation or death in patients hospitalized for severe COVID-19; assay type: in vivo, human; conditions: vs no FIASMA medication
Excerpt: We included all adults aged 18 years or over who have been hospitalized in these medical centers for severe COVID-19. COVID-19 was ascertained by a positive reverse-transcriptase-polymerase-chain-reaction (RT-PCR) test from analysis of nasopharyngeal or oropharyngeal swab specimens. Severe COVID-19 at admission was defined as having at least one of the following criteria: respiratory rate > 24 breaths/min or < 12 breaths/min, resting peripheral capillary oxygen saturation in ambient air < 90%, temperature > 40° C., systolic blood pressure < 100 mm Hg or high lactate levels. AP-HP clinical Data Warehouse initiatives ensure patient information and informed consent regarding the different approved studies through a transparency portal in accordance with European Regulation on data protection and authorization n°1980120 from National Commission for Information Technology and Civil Liberties (CNIL).
We used data from the AP-HP Health Data Warehouse (‘Entrepôt de Données de Santé (EDS)’). This warehouse contains all available clinical data on all inpatient visits for COVID-19 to any Greater Paris University hospital. The data included patient demographic characteristics, vital signs, laboratory test and RT-PCR test results, medication administration data, medication lists during current and past hospitalizations in AP-HP hospitals, current diagnoses, discharge disposition, and death certificates.
We obtained the following data for each patient at the time of the hospitalization: sex; age, which was categorized into 4 classes based on the OpenSAFELY study results (i.e. 18-50, 51-70, 71-80, 81+); hospital, which was categorized into 4 classes following the administrative clustering of AP-HP hospitals in Paris and its suburbs based on their geographical location (i.e., AP-HP Centre - Paris University, Henri Mondor University Hospitals and at home hospitalization; AP-HP Nord and Hôpitaux Universitaires Paris Seine-Saint-Denis; AP-HP Paris Saclay University; and AP-HP Sorbonne University); obesity, which was defined as having a body mass index higher than 30 kg/m^2 or an International Statistical Classification of Diseases and Related Health Problems (ICD-10) diagnosis code for obesity (E66.0, E66.1, E66.2, E66.8, E66.9); self-reported current smoking status; and any medication prescribed according to compassionate use or as part of a clinical trial (e.g. hydroxychloroquine, azithromycin, remdesivir, tocilizumab, sarilumab, or dexamethasone). To take into account possible confounding by indication bias for FIASMA medication, we recorded whether patients had any current diagnosis, based on ICD-10 diagnosis codes, for neoplasms and diseases of the blood (C00-D89); mental disorders (F01-F99); diseases of the nervous system (G00-G99); cardiovascular disorders (I00-I99); respiratory disorders (J00-J99); digestive disorders (K00-K95); dermatological disorders (L00-L99); diseases of the musculoskeletal system (M00-M99); diseases of the genitourinary system (N00-N99); endocrine disorders (E00-E89); and eye-ear-nose-throat disorders (H00-H95).
All medical notes and prescriptions are computerized in Greater Paris University hospitals. Medications including their dosage, frequency, date, and mode of administration were identified from medication administration data or scanned handwritten medical prescriptions, through two deep learning models based on BERT contextual embeddings, one for the medications and another for their mode of administration. The model was trained on the APmed corpus, a previously annotated dataset for this task. Extracted medications names were then normalized to the Anatomical Therapeutic Chemical (ATC) terminology using approximate string matching.
FIASMA medication use was defined as receiving at least one FIASMA medication at study baseline, i.e. within the first 24 hours of hospital admission, and before the end of the index hospitalization, intubation or death.

[8] = test system: SARS-CoV-2; conditions: cited from earlier work; remark: listed apart in the source
[9] = molecular target: serotonin 5-HT2A-receptor (Homo sapiens, UniProt P28223); conditions: cited from earlier work
[10] = test system: COVID-19; assay: Example 3: multicenter observational retrospective study, hydroxyzine use and death in patients admitted to hospital with COVID-19; assay type: in vivo, human
[11] = molecular target: dopamine D2 receptor (Homo sapiens, UniProt P14416); conditions: cited from earlier work
[12] = test system: α1-adrenergic receptor; conditions: cited from earlier work
[13] = test system: COVID-19; conditions: randomized double-blind controlled study; cited from earlier work

Sequence of dopamine D2 receptor (P14416 whole entry, species assumed): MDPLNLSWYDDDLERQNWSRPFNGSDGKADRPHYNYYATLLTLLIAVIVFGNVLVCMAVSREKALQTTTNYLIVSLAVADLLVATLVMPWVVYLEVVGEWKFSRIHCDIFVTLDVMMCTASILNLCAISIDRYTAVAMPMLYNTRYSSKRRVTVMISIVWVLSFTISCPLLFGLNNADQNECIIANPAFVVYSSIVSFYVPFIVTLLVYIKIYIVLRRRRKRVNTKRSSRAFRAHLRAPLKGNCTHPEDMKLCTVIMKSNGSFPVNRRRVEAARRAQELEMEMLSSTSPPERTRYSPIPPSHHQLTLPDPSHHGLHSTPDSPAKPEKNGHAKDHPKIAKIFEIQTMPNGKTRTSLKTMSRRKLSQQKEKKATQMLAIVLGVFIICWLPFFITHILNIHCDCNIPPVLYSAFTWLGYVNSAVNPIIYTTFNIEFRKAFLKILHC
Sequence of serotonin 5-HT2A-receptor (P28223 whole entry): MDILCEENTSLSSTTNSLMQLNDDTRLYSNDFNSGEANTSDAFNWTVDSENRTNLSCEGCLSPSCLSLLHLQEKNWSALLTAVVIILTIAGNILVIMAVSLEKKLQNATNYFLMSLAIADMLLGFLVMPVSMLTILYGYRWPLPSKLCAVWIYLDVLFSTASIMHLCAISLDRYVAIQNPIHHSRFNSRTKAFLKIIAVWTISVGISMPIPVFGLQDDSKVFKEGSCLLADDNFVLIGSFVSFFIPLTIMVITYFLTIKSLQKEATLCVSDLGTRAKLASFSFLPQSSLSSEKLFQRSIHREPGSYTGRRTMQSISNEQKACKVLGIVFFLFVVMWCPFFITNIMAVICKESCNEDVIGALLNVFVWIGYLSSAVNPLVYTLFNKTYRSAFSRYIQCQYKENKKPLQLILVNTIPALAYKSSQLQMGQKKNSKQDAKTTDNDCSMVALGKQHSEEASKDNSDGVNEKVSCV

CN(C)CCC=C1c2ccccc2CCc2ccccc21 [Amitriptyline, amitriptyline]
Formation of ceramide-enriched membrane domains (in words) [1]: inhibited ASM and the formation of ceramide-enriched membrane domains
In vitro inhibition of acid sphingomyelinase (in words) [2]: inhibited ASM; also recorded: in vitro inhibit acid sphingomyelinase with varying degrees
Infection of Vero cells with SARS-CoV-2 (in words) [3]: prevented Vero cells from being infected with SARS-CoV-2
Infection of freshly isolated nasal epithelial cells with SARS-CoV-2 (in words) [4]: efficiently blocked infection of freshly isolated nasal epithelial cells with SARS-CoV-2

CN(C)CCC[C@@]1(c2ccc(F)cc2)OCc2cc(C#N)ccc21 [Escitalopram, escitalopram]
Formation of ceramide-enriched membrane domains (in words) [1]: inhibited ASM and the formation of ceramide-enriched membrane domains
Inhibition of viral replication (in words) [5]: inhibition of viral replication was not observed
Association of use at baseline with risk of intubation or death (in words) [6]: reached statistical significance across all main and sensitivity analyses
Association of use at baseline with risk of intubation or death (in words) [7]: reached statistical significance across all main and sensitivity analyses
In vitro inhibition of acid sphingomyelinase (in words) [2]: inhibited ASM; also recorded: in vitro inhibit acid sphingomyelinase with varying degrees
Infection of Vero cells with SARS-CoV-2 (in words) [3]: prevented Vero cells from being infected with SARS-CoV-2

CNCCC(Oc1ccc(C(F)(F)F)cc1)c1ccccc1 (stereo not drawn) [Fluoxetine, fluoxetine]
Formation of ceramide-enriched membrane domains (in words) [1]: inhibited ASM and the formation of ceramide-enriched membrane domains
Inhibition of viral replication (in words) [5]: inhibition of viral replication
In vitro inhibition of acid sphingomyelinase (in words) [2]: inhibited ASM; also recorded: in vitro inhibit acid sphingomyelinase with varying degrees
Infection of Vero cells with SARS-CoV-2 (in words) [3]: prevented Vero cells from being infected with SARS-CoV-2
Infection of cultured epithelial cells with SARS-CoV-2 (in words) [8]: inhibition of the infection of cultured epithelial cells with SARS-CoV-2

OCCOCCN1CCN(C(c2ccccc2)c2ccc(Cl)cc2)CC1 (stereo not drawn) [Hydroxyzine, 2-[2-[4-[(4-chlorophenyl)-phenylmethyl]piperazin-1-yl]ethoxy]ethanol]
Antagonist action at the serotonin 5-HT2A-receptor (in words) [9]: weakly acts as an antagonist
Association of use at baseline with risk of intubation or death (in words) [6]: reached statistical significance across all main and sensitivity analyses
Association of use at baseline with risk of intubation or death (in words) [7]: reached statistical significance across all main and sensitivity analyses
Association of cumulative dose with risk of death (in words) ([10]; higher rather than lower cumulative doses): significantly associated with lower risk of death; also recorded: significantly stronger at higher rather than lower cumulative doses
Association of use with risk of death (in words) ([10]; hospitalized adult patients with COVID-19): significantly and substantially associated with reduced risk of death; also recorded: significantly associated with reduced mortality in patients hospitalized for COVID-19; also recorded: significantly and substantially associated with lower risk of death
Antagonist action at the dopamine D2 receptor (in words) [11]: weakly acts as an antagonist
Antagonist action at the α1-adrenergic receptor (in words) [12]: weakly acts as an antagonist

COCCCC/C(=N\OCCN)c1ccc(C(F)(F)F)cc1 [fluvoxamine]
Effect on COVID-19 disease progression (in words) [13]: significant protective effects on COVID-19 disease progression
In vitro inhibition of acid sphingomyelinase (in words) [2]: in vitro inhibit acid sphingomyelinase with varying degrees
